Test results published in ChEMBL document CHEMBL4028838, “Structure-related protein tyrosine phosphatase 1B inhibition by naringenin derivatives” (Bioorg Med Chem Lett, 2017).

How the values were obtained:
[1] = Inhibition of alpha-glucosidase (unknown origin)
[2] = target: T1, Tyrosine-protein phosphatase non-receptor type 1 (Homo sapiens, UniProt P18031); experiment: Inhibition of PTP1B (unknown origin) using pNPP as substrate pretreated for 10 mins followed by substrate addition measured after 20 mins by spectrophotometric method
T1 sequence (P18031 whole entry): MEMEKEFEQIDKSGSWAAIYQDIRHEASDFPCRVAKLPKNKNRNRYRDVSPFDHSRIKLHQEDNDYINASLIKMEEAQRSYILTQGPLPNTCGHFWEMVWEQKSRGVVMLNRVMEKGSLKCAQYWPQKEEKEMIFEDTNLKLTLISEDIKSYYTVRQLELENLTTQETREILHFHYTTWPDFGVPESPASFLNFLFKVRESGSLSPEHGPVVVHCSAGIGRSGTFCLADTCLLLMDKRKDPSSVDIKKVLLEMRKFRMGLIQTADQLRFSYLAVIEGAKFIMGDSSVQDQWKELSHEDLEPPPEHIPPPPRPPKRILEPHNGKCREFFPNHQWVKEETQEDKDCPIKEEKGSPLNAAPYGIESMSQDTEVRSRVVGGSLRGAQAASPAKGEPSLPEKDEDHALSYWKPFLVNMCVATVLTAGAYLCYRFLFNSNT

[3] = system: HepG2; experiment: Anti-diabetic activity in insulin-resistant human HepG2 cells assessed as increase in insulin-stimulated 2-NBDG uptake pretreated for 24 hrs followed by 2-NBDG addition measured after 30 mins by fluorescence assay; format: functional, cell-based
[4] = system: HepG2; experiment: Anti-diabetic activity in insulin-resistant human HepG2 cells assessed as increase in insulin-stimulated 2-NBDG uptake at 50 uM pretreated for 24 hrs followed by 2-NBDG addition measured after 30 mins by fluorescence assay relative to control; format: functional
[5] = system: HepG2; experiment: Anti-diabetic activity in insulin-resistant human HepG2 cells assessed as increase in insulin-stimulated 2-NBDG uptake at 10 uM pretreated for 24 hrs followed by 2-NBDG addition measured after 30 mins by fluorescence assay relative to control; format: functional

Row | Structure (SMILES) | IC50 [1] | IC50 [2] | Activity [3] | Activity [4] | Activity [5]
1 | C[C@H]1O[C@H](O[C@H]2[C@H](O)[C@@H](O)[C@@H](O[C@H]3[C@H](O)[C@@H](O)C(O)O[C@@H]3CO)O[C@@H]2CO)[C@H](O)[C@@H](O)[C@@H]1N[C@H]1C=C(CO)[C@@H](O)[C@H](O)[C@H]1O (stereo partly drawn) [ACARBOSE] | 178 µM |  |  |  | 
2 | O=C1C[C@@H](c2ccc(O)cc2)Oc2cc(O[C@@H]3O[C@H](CO)[C@@H](O)[C@H](O)[C@H]3O)cc(O)c21 [PRUNIN] | 106 µM | 17.5 µM | Dose-dependent effect | 109.45% | 
3 | CN(C)C(=N)NC(=N)N [METFORMIN] |  |  |  |  | 125%
4 | C[C@@H]1O[C@@H](OC[C@H]2O[C@@H](Oc3cc(O)c4c(c3)O[C@H](c3ccc(O)cc3)CC4=O)[C@H](O)[C@@H](O)[C@@H]2O)[C@H](O)[C@H](O)[C@H]1O [NARIRUTIN] | > 200 µM | 56.5 µM | Dose-dependent effect | 86.93% | 
5 | O=C1C[C@@H](c2ccc(O)cc2)Oc2cc(O)cc(O)c21 [NARINGENIN] | 10.6 µM | 130 µM | Dose-dependent effect | 71.23% | 
6 | C[C@@H]1O[C@@H](O[C@H]2[C@H](Oc3cc(O)c4c(c3)O[C@H](c3ccc(O)cc3)CC4=O)O[C@H](CO)[C@@H](O)[C@@H]2O)[C@H](O)[C@H](O)[C@H]1O [NARINGIN] | > 200 µM | 91.8 µM | Dose-dependent effect | 82.17% | 
